{"source": "patent US20040156874A1", "about": "“Urea- a topical anti-inflammatory” (Bradley Pharmaceuticals, Inc., priority 2003, published 2004)", "key": {"dermal inflammation": {"tested_on": "dermal inflammation", "experiment": "topical urea applied to inflamed skin", "assay_type": "in vivo"}, "common organisms": {"tested_on": "common organisms", "conditions": "high concentrations of urea, such as 40%; cited from earlier work"}, "horny layer of the skin": {"tested_on": "horny layer of the skin", "conditions": "normal horny layer or ichthyotic/psoriatic scales soaked in 30% urea solution; cited from earlier work"}}}
{"smiles": "NC(N)=O", "note": "[urea]", "values": [{"measurement": "dermal inflammation", "setting": "dermal inflammation; formulated in a pharmaceutically acceptable base", "value": "improvement"}, {"measurement": "effectiveness against inflammation due to microbial infection", "setting": "dermal inflammation; inflammation due to microbial infection", "value": "particularly effective"}, {"measurement": "antibacterial effect", "setting": "common organisms", "value": "mild, antibacterial effect"}, {"measurement": "water uptake of horny layer", "setting": "horny layer of the skin", "value": "take up much more water"}]}
